One data set addresses T1, human CB2 receptors (Homo sapiens, UniProt P34972).
T1 construct: expressed in transfected cells; host or cells: HEK293
Put plainly: human CB2 radioligand binding assay ([3H]CP 55,940 competition). Particulars: HEK293 membranes, 0.5 nM [3H]CP 55,940. The essentials: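 Membranes from HEK293 cells stably expressing human CB2 (5 μg protein/well) competed against 0.5 nM [3H]CP 55,940 with five concentrations of test ligand (0.01 nM to 10 μM), pH 7.4 Tris buffer with BSA, 90 min at 30 °C. Filtration and scintillation counting; nonspecific binding with 10 μM unlabeled CP 55,940.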

A further data set deals with T2, Rat CB1 (Rattus norvegicus, UniProt P20272).
T2 construct: expressed in transfected cells; host or cells: HEK
T2 sequence (P20272 whole entry): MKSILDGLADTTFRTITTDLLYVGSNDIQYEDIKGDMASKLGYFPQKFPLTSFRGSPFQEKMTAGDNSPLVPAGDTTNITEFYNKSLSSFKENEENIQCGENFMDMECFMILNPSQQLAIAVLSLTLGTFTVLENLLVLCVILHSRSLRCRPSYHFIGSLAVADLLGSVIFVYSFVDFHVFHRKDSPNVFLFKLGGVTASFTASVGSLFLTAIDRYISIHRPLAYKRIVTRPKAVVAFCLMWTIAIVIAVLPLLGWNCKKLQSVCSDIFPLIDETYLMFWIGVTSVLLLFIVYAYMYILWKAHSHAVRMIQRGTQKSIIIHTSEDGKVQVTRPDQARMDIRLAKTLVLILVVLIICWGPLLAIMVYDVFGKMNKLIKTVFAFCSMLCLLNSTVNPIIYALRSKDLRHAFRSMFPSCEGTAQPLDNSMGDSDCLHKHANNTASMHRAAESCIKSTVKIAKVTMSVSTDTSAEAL
Nature of the data set: rat CB1 cyclase functional assay (HitHunter cAMP). The class given is cell-based. Particulars: HEK cells, forskolin 37 μM. The essentials:
(§1)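 HEK cells expressing rat CB1 or CB2, 10,000 cells/well, incubated 20 min at 37° C with test ligands plus forskolin (37 μM for CB1, 18 μM for CB2) in DPBS with 0.01% BSA. cAMP read by enzyme-complementation luminescence after lysis; EC50 from sigmoidal dose-response fit.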

The nature of data set [1]: pharmacokinetic studies in rats. As to conditions: male, Sprague-Dawley, rat, in vivo. As for the experimental part: Male Sprague-Dawley rats, weighing 250-400 g, were obtained from Charles Rivers Laboratories. Pharmacokinetic studies were conducted in three groups of rats; each group contained three animals. All groups were dosed with a solution formulation. The first group of three rats received an intravenous dose, administered under isoflurane anesthetic. The second group received an intraperitoneal dose and the third group received an oral dose, administered by gavage. Sequential blood samples were obtained from a tail vein of each animal for 8-24 hours after dosing. Plasma was separated by centrifugation and stored frozen until analysis.
Half life […] and plasma clearance values are based on intravenous administration (3 micromole/kg).
Half life (t1/2) and plasma clearance values are based on intravenous administration (3 micromole/kg).

Data set [2] has as its target T3, rat CB2 (Rattus norvegicus, UniProt Q9QZN9).
T3 sequence (Q9QZN9 1-360): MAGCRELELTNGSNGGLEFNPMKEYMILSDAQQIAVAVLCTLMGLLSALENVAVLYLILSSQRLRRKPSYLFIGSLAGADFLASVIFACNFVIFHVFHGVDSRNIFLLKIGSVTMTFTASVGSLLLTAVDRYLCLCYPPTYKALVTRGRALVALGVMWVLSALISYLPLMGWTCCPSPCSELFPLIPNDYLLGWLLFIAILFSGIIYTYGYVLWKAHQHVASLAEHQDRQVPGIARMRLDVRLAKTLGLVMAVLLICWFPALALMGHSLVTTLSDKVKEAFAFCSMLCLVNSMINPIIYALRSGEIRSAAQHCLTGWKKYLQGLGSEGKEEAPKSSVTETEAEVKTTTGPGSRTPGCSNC
Nature of the data set: rat CB2 cyclase functional assay (HitHunter cAMP). As to conditions: HEK cells, forskolin 18 μM. Details: expressed in transfected cells; host or cells: HEK. The class given is cell-based. A digest of the protocol: as §1

Data set [3] concerns the target T3, rat CB2. Nature of the data set: rat CB2 radioligand binding assay ([3H]CP 55,940 competition). On the set-up: expressed in transfected cells; host or cells: HEK293. As to conditions: HEK293 membranes, 0.5 nM [3H]CP 55,940. A digest of the protocol: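 Membranes (20 μg protein/well) from HEK293 cells stably expressing the receptor were incubated 45 min at 30 °C with 0.5 nM [3H]CP 55,940 and five concentrations of test compound (0.01 nM–10 μM) in Tris/EDTA/MgCl2/BSA buffer, pH 7.4. Bound ligand was measured by GF/C filtration and scintillation counting; 10 μM CP 55,940 defined nonspecific binding.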

[4] abbreviates: read-out: Rat CB1 cyclase (EC50).
Setting [5] is: read-out: rat CB2 cyclase (EC50).

Read-outs that look alike come from different tables or passages of the source.

Here are results for 16 compounds from US8188135B2, “Compounds as cannabinoid receptor ligands” (priority 2008, dated 2012).

T1 sequence (P34972 whole entry): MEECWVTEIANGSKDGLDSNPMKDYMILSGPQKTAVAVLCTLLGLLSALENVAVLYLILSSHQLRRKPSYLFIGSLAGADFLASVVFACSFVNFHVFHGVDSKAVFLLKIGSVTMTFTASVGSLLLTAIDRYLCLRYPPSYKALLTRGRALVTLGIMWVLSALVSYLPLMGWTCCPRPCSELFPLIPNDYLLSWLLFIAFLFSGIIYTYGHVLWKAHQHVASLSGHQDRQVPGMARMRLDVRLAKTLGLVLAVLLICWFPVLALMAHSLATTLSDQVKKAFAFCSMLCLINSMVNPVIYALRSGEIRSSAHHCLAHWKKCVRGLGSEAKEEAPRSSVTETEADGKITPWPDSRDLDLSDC

In the case of `Cn1c(C(C)(C)C)c/c(=N\C(=O)c2cc(C(F)(F)F)ccc2OCCC(C)(C)O)n1CC1CC1` [Example 51, N-[(3E)-5-tert-butyl-2-(cyclopropylmethyl)-1-methyl-1,2-dihydro-3H-pyrazol-3-ylidene]-2-(3-hydroxy-3-methylbutoxy)-5-(trifluoromethyl)benzamide], the Ki turned out to be 80 nM on human CB2 receptors (human CB2 (Ki, nM)) and 15 nM on rat CB2 [3] (rat CB2 (Ki, nM)). In addition, the EC50 on Rat CB1 (Rat CB1 cyclase (EC50, nM)) was greater than 27000 nM; at rat CB2 [2] (rat CB2 cyclase (EC50, nM)), 0.46 nM. Further, the clearance in data set [1] (iv, 3 micromole/kg) is 8.33 mL/min/kg. In data set [1] (iv, 3 micromole/kg), the half-life was 3.2 h. The compound also showed a bioavailability in data set [1] (po, 10 micromole/kg) of 52%.
As to `Cn1c(C(C)(C)C)c/c(=N\C(=O)c2cc(C(F)(F)F)ccc2OCCC2=CCCC2)n1C[C@H]1CCCO1` [Example 53, N-{(3E)-5-tert-butyl-1-methyl-2-[(2R)-tetrahydrofuran-2-ylmethyl]-1,2-dihydro-3H-pyrazol-3-ylidene}-2-(2-cyclopent-1-en-1-ylethoxy)-5-(trifluoromethyl)benzamide], the Ki at human CB2 receptors (human CB2 (Ki, nM)) was found to be 1.5 nM; on rat CB2 [3] (rat CB2 (Ki, nM)) it was 2.8 nM. The EC50 at Rat CB1 (Rat CB1 cyclase (EC50, nM)) was 1970 nM; at rat CB2 [2] (rat CB2 cyclase (EC50, nM)) it was 2.7 nM.
`CN1CC[C@H]1COc1ccc(C(F)(F)F)cc1C(=O)/N=c1\oc(C(C)(C)C)cn1C[C@H]1CCCO1` [Example 74, N-[(2Z)-5-tert-butyl-3-[(2R)-tetrahydrofuran-2-ylmethyl]-1,3-oxazol-2(3 H)-ylidene]-2-{[(2S)-1-methylazetidin-2-yl]methoxy}-5-(trifluoromethyl)benzamide]: the inhibitory constant (Ki) was 188 nM on human CB2 receptors (human CB2 (Ki, nM)) and 96 nM at rat CB2 [3] (rat CB2 (Ki, nM)). For the same compound, the EC50 came to 3350 nM at Rat CB1 (Rat CB1 cyclase (EC50, nM)) and 0.42 nM on rat CB2 [2] (rat CB2 cyclase (EC50, nM)).
For `Cn1c(C(C)(C)C)c/c(=N\C(=O)c2cc(C(F)(F)F)ccc2OC[C@@H]2CCCO2)n1CC1CC1` [Example 27, N-[(3E)-5-tert-butyl-2-(cyclopropylmethyl)-1-methyl-1,2-dihydro-3H-pyrazol-3-ylidene]-2-[(2S)-tetrahydrofuran-2-ylmethoxy]-5-(trifluoromethyl)benzamide], in that order: 23 nM, 9.4 nM, 3370 nM and 0.2 nM.
For `CCS(=O)(=O)NCCOc1ccc(C(F)(F)F)cc1C(=O)/N=c1\cc(C(C)(C)C)n(C)n1C[C@H]1CCCO1` [Example 50], in that order: 21 nM, 8.5 nM, 1180 nM and 0.12 nM.
On to `Cn1c(C(C)(C)C)c/c(=N\C(=O)c2cc(C(F)(F)F)ccc2OC[C@@H]2C=CCO2)n1C[C@H]1CCCO1` [Example 25, N-{(3E)-5-tert-1-methyl-2-[(2R)-tetrahydrofuran-2-ylmethyl]-1,2-dihydro-3H-pyrazol-3-ylidene}-2-[(2S)-2,5-dihydrofuran-2-ylmethoxy]-5-(trifluoromethyl)benzamide], for which the Ki at human CB2 receptors (read-out: human CB2 (Ki)) was determined as 31 nM; at rat CB2 [3] (read-out: rat CB2 (Ki)), 20 nM. In addition, the EC50 stood at 531 nM on Rat CB1 (setting [4]) and 0.3 nM on rat CB2 [2] (setting [5]).
On to `Cn1c(C(C)(C)C)c/c(=N\C(=O)c2cc(C(F)(F)F)ccc2OC[C@@H]2CCN2)n1C[C@H]1CCCO1` [Example 2, 2-[(2S)-azetidin-2-ylmethoxy]-N-{(3E)-5-tert-butyl-1-methyl-2-[(2R)-tetrahydrofuran-2-ylmethyl]-1,2-dihydro-3H-pyrazol-3-ylidene}-5-(trifluoromethyl)benzamide], for which the Ki at human CB2 receptors (human CB2 (Ki, nM)) was greater than 1000 nM; on rat CB2 [3] (rat CB2 (Ki, nM)), 195 nM. Moreover, the EC50 is 11200 nM at Rat CB1 (Rat CB1 cyclase (EC50, nM)) and 0.77 nM at rat CB2 [2] (rat CB2 cyclase (EC50, nM)).
Consider `CC1CCC(COc2ccc(C(F)(F)F)cc2C(=O)N=c2cc(C(C)(C)C)n(C)n2CC2CCCO2)O1` (single isomer, unassigned) [Example 36], for which the inhibitory constant (Ki) was found to be 74 nM on human CB2 receptors (human CB2 (Ki, nM)) and 108 nM at rat CB2 [3] (rat CB2 (Ki, nM)). Further, the EC50 at Rat CB1 (Rat CB1 cyclase (EC50, nM)) stood at 8410 nM; at rat CB2 [2] (rat CB2 cyclase (EC50, nM)), 2.7 nM.
For `Cn1c(C(C)(C)C)c/c(=N\C(=O)c2cc(C(F)(F)F)ccc2OCC2CCS(=O)(=O)C2)n1C[C@H]1CCCO1` (stereo partly drawn) [Example 6, N-{(3E)-5-tert-butyl-1-methyl-2-[(2R)-tetrahydrofuran-2-ylmethyl]-1,2-dihydro-3H-pyrazol-3-ylidene}-2-[(1,1-dioxidotetrahydrothien-3-yl)methoxy]-5-(trifluoromethyl)benzamide], in that order: 203 nM, 78 nM, 11200 nM and 7.5 nM.
In the case of `CN1CCC[C@H]1COc1ccc(C(F)(F)F)cc1C(=O)/N=c1\cc(C(C)(C)C)on1C[C@H]1CCCO1` [Example 39, N-[(3E)-5-tert-butyl-2-[(2R)-tetrahydrofuran-2-ylmethyl]isoxazol-3(2H)-ylidene]-2-{[(2S)-1-methylpyrrolidin-2-yl]methoxy}-5-(trifluoromethyl)benzamide], the Ki was determined as 62 nM on human CB2 receptors (human CB2 (Ki, nM)) and 46 nM on rat CB2 [3] (rat CB2 (Ki, nM)). Also, the EC50 at Rat CB1 (Rat CB1 cyclase (EC50, nM)) was determined as 2620 nM; on rat CB2 [2] (rat CB2 cyclase (EC50, nM)), 0.63 nM.
`Cn1c(C(C)(C)C)c/c(=N\C(=O)c2cc(C(F)(F)F)ccc2OC[C@@H]2CCC(C)(C)O2)n1C[C@H]1CCCO1` [Example 52]: the Ki at human CB2 receptors (read-out: human CB2 (Ki)) worked out at 10 nM; on rat CB2 [3] (read-out: rat CB2 (Ki)), 19 nM. Moreover, the results for the EC50 at Rat CB1 (setting [4]) and on rat CB2 [2] (setting [5]) were greater than 27000 nM and 0.93 nM, respectively.
As for `CC1CCC(COc2ccc(C(F)(F)F)cc2C(=O)N=c2cc(C(C)(C)C)n(C)n2CC2CCCO2)O1` (single isomer, unassigned) [Example 37], the Ki came out at 57 nM at human CB2 receptors (human CB2 (Ki, nM)) and 16 nM at rat CB2 [3] (rat CB2 (Ki, nM)). The EC50 came out at 8590 nM at Rat CB1 (Rat CB1 cyclase (EC50, nM)) and 0.45 nM at rat CB2 [2] (rat CB2 cyclase (EC50, nM)).
In the case of `CCOCCOCCOc1ccc(C(F)(F)F)cc1C(=O)/N=c1\cc(C(C)(C)C)n(C)n1C[C@H]1CCCO1` [Example 47, N-{(3E)-5-tert-butyl-1-methyl-2-[(2R)-tetrahydrofuran-2-ylmethyl]-1,2-dihydro-3H-pyrazol-3-ylidene}-2-[2-(2-ethoxyethoxy)ethoxy]-5-(trifluoromethyl)benzamide], the inhibition constant (Ki) at human CB2 receptors (human CB2 (Ki, nM)) came out at 70 nM; at rat CB2 [3] (rat CB2 (Ki, nM)) it was 89 nM. In addition, the EC50 at Rat CB1 (Rat CB1 cyclase (EC50, nM)) was greater than 27000 nM; at rat CB2 [2] (rat CB2 cyclase (EC50, nM)), 5.6 nM.
For `CSCCOc1ccc(C(F)(F)F)cc1C(=O)/N=c1\cc(C(C)(C)C)n(C)n1C[C@H]1CCCO1` [Example 57], in that order: 11 nM, 1.9 nM, 7530 nM and 1.4 nM.
On the same counts, the results for `Cn1c(C(C)(C)C)c/c(=N\C(=O)c2cc(C(F)(F)F)ccc2OC[C@@H]2CCCCN2)n1C[C@H]1CCCO1` [Example 88, N-{(3E)-5-tert-butyl-1-methyl-2-[(2R)-tetrahydrofuran-2-ylmethyl]-1,2-dihydro-3 H-pyrazol-3-ylidene}-2-[(2S)-piperidin-2-ylmethoxy]-5-(trifluoromethyl)benzamide] are 14 nM, 3.5 nM, 702 nM and 0.45 nM.
On the same counts, the results for `Cn1c(C(C)(C)C)c/c(=N\C(=O)c2cc(C(F)(F)F)ccc2OCc2cnccn2)n1C[C@H]1CCCO1` [Example 40, N-{(3E)-5-tert-butyl-1-methyl-2-[(2R)-tetrahydrofuran-2-ylmethyl]-1,2-dihydro-3H-pyrazol-3-ylidene}-2-(pyrazin-2-ylmethoxy)-5-(trifluoromethyl)benzamide] are 126 nM, 73 nM, greater than 27000 nM and 3.3 nM.

Broadly, the Ki is the equilibrium dissociation constant of an inhibitor or competing ligand from its target. The EC50 is the midpoint of the concentration-response curve. As a reminder, the clearance is the volume of plasma or blood freed of the substance per unit of time. A higher clearance goes with a high capacity for elimination. In general, half-life refers to the time needed for the level to fall by half in the phase considered. For orientation: bioavailability means the share of a dose that reaches the circulation, judged against a reference dose that is usually intravenous. A higher bioavailability goes with good availability.
